Columns and labels:
SmMLCK = SmMLCK (Homo sapiens, UniProt Q15746); test: kinase profiling, radioactive filter binding assay; assay type: biochemical; conditions: 0.1 µM compound, assay duplicates; read-out: residual activity of SmMLCK, mean percentage activity
Method: (§1) To compare the active inhibitors 1 and 3, a selectivity profile over 79 kinases was recorded. The residual kinase activities are presented as a heatmap (Figure 6, for raw data see Supplementary Table S1).
(§2) Compounds 1 and 3 were screened against 79 kinases. The used method was a radioactive filter binding assay using ^33P ATP, for details see references. The substances were dissolved in DMSO at tested concentration of 0.1 µM. The mean percentage residual kinase activity and standard deviations of assay duplicates were determined. Analyses were performed by the International Center for Kinase Profiling at the University of Dundee, UK.

PLK1 (Okadaic Acid) = PLK1 (Okadaic Acid) (Homo sapiens, UniProt P53350); test: kinase profiling, radioactive filter binding assay; assay type: biochemical; conditions: 0.1 µM compound, assay duplicates; read-out: residual activity of PLK1 (Okadaic Acid), mean percentage activity
Method: as §1, §2

IKKe = IKKe (Homo sapiens, UniProt Q14164); test: kinase profiling, radioactive filter binding assay; assay type: biochemical; conditions: 0.1 µM compound, assay duplicates; read-out: residual activity of IKKe, mean percentage activity
How it was run: (§3)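 Each substance, at 0.1 µM in DMSO, was screened by a 33P-ATP radioactive filter binding assay.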

TBK1 (DU12569) = TBK1 (DU12569) (Homo sapiens, UniProt Q9UHD2); test: kinase profiling, radioactive filter binding assay; assay type: biochemical; conditions: 0.1 µM compound, assay duplicates; read-out: residual activity of TBK1 (DU12569), mean percentage activity
How it was run: as §3

[1] = UV stability at 365 nm in DMSO (HPLC, LC-MS); conditions: 1 mM in DMSO, 5.4 W, up to 10 min
Method: HPLC and LC-MS analysis were used for content determination.
Aliquots were diluted 1:10 with methanol and analyzed by HPLC.

IR-HIS = IR-HIS (Homo sapiens, UniProt P06213); test: kinase profiling, radioactive filter binding assay; assay type: biochemical; conditions: 0.1 µM compound, assay duplicates; read-out: residual activity of IR-HIS, mean percentage activity
How it was run: as §3

PC-3 cells = test: cellular uptake by fluorescence microscopy (cell staining); assay type: cell-based; conditions: live PC-3 cells, 10 µM, 30 min, autofluorescence
Method: Next, we investigated the cellular bioavailability of the caged prodrugs. For this purpose, we used the autofluorescence of the carbazole 3 and its caged derivative 5. The emission spectra of both compounds are shown in the Supplementary Figure S6. The fluorescence microscopy was used to explore the uptake of the compounds into the cells. Live PC-3 cells were stained with 10 µM solutions of 3 or 5, and then fixed with formalin. Subsequently, the cell nuclei were counterstained with 1 µg/mL DAPI.
PC-3 cells were stained with the carbazole 3 and its caged derivative 5. For this purpose, the cells were seeded to give 15,000 cells in 50 µL per well into 96-well half area microplate (Ref.: 675986, Greiner bio-one, Kremsmünster, Austria). The plate was incubated for 48 h at 37 °C in a humidified atmosphere with 5% CO2. Compounds 3 and 5 were dissolved in DMEM:Hams F12 (1:1) medium with 5% FCS and added to the cells to give the endconcentration of 10 µM, respectively. The cells were incubated with the compounds for 30 min at 37 °C. After that, the cells were washed twice with PBS and fixed with 3.3% formalin for 15 min. […] After 30 min incubation at 37 °C, the cells were washed with PBS and the fluorescence images were taken at the ImageXpress® Micro XL (Molecular Devices, Sunnyvale CA, USA). […]

Sequence of PLK1 (Okadaic Acid) (P53350 whole entry): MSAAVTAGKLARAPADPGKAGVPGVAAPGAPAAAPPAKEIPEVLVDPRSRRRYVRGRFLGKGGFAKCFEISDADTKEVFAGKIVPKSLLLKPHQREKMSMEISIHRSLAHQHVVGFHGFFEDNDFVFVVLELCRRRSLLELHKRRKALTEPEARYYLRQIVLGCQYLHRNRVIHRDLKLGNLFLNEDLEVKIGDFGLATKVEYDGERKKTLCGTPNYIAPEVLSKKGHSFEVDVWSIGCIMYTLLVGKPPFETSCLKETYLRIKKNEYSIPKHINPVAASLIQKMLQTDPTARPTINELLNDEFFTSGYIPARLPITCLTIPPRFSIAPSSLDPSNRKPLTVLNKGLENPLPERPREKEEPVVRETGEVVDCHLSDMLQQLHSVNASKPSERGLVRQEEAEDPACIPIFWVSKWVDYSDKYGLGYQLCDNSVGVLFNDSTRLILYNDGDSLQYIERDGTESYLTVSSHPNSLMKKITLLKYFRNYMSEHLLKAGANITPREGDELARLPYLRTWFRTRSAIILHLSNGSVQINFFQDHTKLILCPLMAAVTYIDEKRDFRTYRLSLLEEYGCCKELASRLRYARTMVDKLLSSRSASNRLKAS
Sequence of IKKe (Q14164 whole entry): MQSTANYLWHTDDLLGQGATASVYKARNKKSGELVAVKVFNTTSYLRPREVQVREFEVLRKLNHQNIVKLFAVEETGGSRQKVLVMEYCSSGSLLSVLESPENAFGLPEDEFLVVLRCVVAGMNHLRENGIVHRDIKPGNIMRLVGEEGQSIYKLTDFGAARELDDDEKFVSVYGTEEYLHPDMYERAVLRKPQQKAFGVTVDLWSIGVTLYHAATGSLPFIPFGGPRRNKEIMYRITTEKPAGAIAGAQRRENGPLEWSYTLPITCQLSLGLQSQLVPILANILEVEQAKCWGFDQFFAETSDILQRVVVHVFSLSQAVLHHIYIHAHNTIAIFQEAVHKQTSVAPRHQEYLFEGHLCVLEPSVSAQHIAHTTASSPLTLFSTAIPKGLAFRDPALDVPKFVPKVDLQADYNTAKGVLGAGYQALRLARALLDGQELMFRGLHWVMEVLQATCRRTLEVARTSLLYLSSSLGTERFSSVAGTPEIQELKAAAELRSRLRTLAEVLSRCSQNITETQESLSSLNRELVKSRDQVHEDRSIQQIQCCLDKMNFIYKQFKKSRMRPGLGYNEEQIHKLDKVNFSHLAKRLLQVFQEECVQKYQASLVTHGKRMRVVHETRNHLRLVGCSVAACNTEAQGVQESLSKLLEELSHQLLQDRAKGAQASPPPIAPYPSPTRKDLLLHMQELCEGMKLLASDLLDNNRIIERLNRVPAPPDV
Sequence of SmMLCK (Q15746 923-1914): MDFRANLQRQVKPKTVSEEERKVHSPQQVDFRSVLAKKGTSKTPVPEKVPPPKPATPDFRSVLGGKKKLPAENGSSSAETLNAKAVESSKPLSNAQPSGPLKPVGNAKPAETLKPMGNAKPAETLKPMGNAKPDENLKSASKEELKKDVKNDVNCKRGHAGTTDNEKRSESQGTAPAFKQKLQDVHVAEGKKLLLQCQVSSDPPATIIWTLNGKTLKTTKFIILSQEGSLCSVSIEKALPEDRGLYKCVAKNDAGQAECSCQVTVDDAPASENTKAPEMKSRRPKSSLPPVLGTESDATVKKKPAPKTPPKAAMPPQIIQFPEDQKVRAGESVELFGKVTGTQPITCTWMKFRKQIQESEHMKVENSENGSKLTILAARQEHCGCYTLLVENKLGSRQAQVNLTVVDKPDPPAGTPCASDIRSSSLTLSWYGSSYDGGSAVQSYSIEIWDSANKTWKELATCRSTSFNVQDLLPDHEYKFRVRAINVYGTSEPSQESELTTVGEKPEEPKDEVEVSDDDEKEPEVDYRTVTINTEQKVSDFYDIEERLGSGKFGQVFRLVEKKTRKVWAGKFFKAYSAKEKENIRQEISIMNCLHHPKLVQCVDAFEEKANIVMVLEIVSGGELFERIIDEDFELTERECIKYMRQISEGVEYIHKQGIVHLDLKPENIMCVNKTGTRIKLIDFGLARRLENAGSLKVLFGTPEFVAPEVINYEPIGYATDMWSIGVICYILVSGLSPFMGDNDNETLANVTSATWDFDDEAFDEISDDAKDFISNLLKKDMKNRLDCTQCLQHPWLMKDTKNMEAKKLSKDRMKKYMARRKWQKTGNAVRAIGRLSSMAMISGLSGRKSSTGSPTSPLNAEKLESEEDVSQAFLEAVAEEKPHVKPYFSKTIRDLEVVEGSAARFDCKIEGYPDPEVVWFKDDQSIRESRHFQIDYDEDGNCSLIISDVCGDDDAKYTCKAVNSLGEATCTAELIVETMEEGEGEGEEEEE
Sequence of TBK1 (DU12569) (Q9UHD2 whole entry): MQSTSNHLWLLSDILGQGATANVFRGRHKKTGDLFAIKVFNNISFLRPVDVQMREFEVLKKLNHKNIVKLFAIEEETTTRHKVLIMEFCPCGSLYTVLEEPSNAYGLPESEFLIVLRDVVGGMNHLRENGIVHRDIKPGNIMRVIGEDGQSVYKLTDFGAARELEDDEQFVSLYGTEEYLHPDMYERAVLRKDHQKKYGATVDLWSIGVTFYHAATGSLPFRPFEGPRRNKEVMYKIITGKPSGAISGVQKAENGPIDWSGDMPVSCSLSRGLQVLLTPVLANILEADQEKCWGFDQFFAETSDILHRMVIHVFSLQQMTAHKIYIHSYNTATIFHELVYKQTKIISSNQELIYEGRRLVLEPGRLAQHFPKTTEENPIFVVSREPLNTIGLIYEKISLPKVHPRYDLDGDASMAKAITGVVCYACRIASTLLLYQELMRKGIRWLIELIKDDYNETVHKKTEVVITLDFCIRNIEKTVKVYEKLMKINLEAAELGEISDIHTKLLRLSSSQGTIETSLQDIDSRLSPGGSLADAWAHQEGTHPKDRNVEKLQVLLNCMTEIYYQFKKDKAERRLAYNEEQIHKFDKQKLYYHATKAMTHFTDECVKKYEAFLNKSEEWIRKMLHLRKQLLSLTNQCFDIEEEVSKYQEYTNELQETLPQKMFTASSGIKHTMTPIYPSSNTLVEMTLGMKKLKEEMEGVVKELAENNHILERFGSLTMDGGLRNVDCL
Sequence of IR-HIS (P06213 28-1382): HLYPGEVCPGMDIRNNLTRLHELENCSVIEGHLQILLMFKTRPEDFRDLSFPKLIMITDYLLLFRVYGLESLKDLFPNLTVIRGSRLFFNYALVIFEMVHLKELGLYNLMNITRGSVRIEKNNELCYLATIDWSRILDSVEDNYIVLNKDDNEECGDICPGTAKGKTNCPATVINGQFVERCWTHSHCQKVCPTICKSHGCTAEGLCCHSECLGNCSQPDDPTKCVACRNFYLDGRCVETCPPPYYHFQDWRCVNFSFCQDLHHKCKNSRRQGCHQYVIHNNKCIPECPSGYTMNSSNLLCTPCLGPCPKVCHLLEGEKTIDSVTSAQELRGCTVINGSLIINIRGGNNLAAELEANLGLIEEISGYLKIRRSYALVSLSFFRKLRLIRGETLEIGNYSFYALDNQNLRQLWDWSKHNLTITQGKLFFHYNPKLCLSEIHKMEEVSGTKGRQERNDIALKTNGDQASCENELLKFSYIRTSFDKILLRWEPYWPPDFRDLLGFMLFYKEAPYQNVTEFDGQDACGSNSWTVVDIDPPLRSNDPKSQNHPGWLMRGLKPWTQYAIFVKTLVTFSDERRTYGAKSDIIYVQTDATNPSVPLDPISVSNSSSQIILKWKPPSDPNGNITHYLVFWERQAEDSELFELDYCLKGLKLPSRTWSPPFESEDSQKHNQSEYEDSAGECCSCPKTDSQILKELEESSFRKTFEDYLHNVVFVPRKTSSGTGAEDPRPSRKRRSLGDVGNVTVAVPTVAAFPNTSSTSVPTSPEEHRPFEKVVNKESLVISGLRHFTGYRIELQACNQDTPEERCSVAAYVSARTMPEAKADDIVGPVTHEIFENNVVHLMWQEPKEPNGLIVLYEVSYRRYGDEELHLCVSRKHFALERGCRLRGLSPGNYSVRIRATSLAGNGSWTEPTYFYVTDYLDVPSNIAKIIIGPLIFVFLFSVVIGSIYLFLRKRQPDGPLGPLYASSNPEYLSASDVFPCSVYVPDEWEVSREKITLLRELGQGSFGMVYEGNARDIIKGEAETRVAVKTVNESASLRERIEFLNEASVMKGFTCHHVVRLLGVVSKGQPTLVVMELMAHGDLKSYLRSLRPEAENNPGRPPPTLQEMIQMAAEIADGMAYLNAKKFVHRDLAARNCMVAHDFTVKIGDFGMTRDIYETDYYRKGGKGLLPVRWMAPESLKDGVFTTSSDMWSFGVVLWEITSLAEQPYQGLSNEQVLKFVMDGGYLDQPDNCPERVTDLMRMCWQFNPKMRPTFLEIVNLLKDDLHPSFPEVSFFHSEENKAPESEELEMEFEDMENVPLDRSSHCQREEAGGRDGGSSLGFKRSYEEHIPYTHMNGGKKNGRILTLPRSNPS

SMILES	remaining activity at 0.1 µM (SmMLCK) [%]	remaining activity at 0.1 µM (PLK1 (Okadaic Acid)) [%]	remaining activity at 0.1 µM (IKKe) [%]	remaining activity at 0.1 µM (TBK1 (DU12569)) [%]	UV stability under irradiation at 365 nm [1]	remaining activity at 0.1 µM (IR-HIS) [%]	cellular uptake (PC-3 cells)	melting point [°C]
COc1cc(C2=C(c3c[nH]c4ccccc34)C(=O)NC2=O)cc(OC)c1OC [Compound 1, 3-(1H-Indol-3-yl)-4-(3,4,5-trimethoxyphenyl)-1H-pyrrole-2,5-dione]	60	85	80	88	–	–	–	–
COc1cc2c3c(c4c5ccccc5[nH]c4c2c(OC)c1OC)C(=O)NC3=O [Compound 3, 5,6,7-Trimethoxybenzo[a]pyrrolo[3,4-c]carbazole-1,3(2H,8H)-dione]	30	83	63	73	quite stable	88	taken up into the cells, but not within the cell nuclei	275

— publication PMC6274539, “Photoactivatable Caged Prodrugs of VEGFR-2 Kinase Inhibitors” (Molecules, 2016)
